We go through five compounds from publication PMC8157854, “Radiosynthesis and Evaluation of Talazoparib and Its Derivatives as PARP-1-Targeting Agents” (Biomedicines, 2021).

One data set deals with intratumoral PAR. On the set-up: method as in PMID 26652717. The following applies: at 2 and 8 h time points, partial recovery at 24 h; cited from earlier work.
In another data set the test system is P-glycoprotein (P-gp). On the set-up: method as in PMID 31770456. The following applies: cited from earlier work.
Another data set has as its target PARP-1 (Homo sapiens, UniProt P09874). The data set can be described thus: Competitive binding assay with [3H]WC-DZ in U251MG cells. To be noted: for pseudoHill coefficient n′H: competitive binding vs [3H]WC-DZ in U251MG cells, Mean ± SEM, n = 3.
For another data set, the system named is PC-3 prostate tumors. The data set can be described thus: Biodistribution of [18F]talazoparib in PC-3 tumor-bearing SCID mice. It is filed as in vivo. The following applies: for tumor uptake: PC-3 tumor. The text has this: 2.5. Xenograft Model The animal studies were approved by Washington University’s Institutional Animal Care and Use Committee (IACUC), Protocol #20-0214 approved 7 August 2020. The overall animal care was following The Guide for the Care and Use of Laboratory Animals from the National Research Council and the USDA Animal Care Resource Guide. Mature SCID mice from Charles River Laboratories were allowed to acclimate in an AALAC accredited housing facility for at least 1 week before tumor implantation for the biodistribution study. Male SCID mice (4 weeks old, n = 4/group, 2 groups), with 1 × 10^7 PC-3 prostate cancer cells implanted subcutaneously in the right shoulder grew for about 35 days before the radiotracer biodistribution studies. 2.6. Biodistribution Animals were intravenously injected with [^18F]talazoparib (120 µCi) in 10% ethanol/saline (100 µL) via the tail vein. At the specified time point (4 and 8 h), the mice were sacrificed, the blood, lungs, liver, spleen, kidneys, muscle, fat, heart, brain, bone, bone marrow, prostate, pancreas, and tumor were harvested, weighed, and counted in a γ-counter. The percentage injected dose per gram of tissue (%ID/g) was determined by decay correction of the [^18F]talazoparib for each sample and then normalized by the standard injected radiotracer dose and the sample weight.

Chain of PARP-1 (P09874 whole entry): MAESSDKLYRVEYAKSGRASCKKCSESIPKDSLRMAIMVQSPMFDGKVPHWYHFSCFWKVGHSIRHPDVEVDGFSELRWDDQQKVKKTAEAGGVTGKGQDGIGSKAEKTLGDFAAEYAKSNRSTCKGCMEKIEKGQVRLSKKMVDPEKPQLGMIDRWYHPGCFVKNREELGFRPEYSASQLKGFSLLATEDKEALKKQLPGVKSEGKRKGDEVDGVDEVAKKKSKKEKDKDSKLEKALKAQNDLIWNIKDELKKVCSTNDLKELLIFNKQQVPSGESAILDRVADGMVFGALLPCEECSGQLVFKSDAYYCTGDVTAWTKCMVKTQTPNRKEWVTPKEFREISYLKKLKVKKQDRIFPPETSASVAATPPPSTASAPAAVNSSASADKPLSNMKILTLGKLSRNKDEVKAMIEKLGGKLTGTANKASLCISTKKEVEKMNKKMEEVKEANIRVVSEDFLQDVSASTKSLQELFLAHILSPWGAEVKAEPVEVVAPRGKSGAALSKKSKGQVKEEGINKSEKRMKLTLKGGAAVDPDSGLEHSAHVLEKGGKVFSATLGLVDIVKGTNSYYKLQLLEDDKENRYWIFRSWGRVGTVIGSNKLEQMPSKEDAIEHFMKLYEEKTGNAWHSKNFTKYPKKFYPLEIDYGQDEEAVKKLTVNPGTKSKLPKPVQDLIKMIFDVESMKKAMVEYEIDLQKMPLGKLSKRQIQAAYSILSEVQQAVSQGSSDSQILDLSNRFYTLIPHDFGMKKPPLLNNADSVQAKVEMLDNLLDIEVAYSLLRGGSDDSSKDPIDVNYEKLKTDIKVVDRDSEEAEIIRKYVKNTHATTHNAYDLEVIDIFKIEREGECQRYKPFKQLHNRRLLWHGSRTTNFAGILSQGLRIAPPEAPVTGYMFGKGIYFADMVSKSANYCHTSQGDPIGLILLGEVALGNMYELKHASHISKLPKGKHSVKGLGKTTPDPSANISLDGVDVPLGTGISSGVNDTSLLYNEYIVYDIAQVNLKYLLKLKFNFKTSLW
Description for PARP-1: After the reaction was completed, the cells were washed once with ice-cold PBS and the bound radioactivity was counted and analyzed as described above.
Competitive dissociation constants (Ki values) were derived from the Cheng and Prussoff equation [24]: Ki=IC50/1+Lt/Kd
Data from competitive binding were transformed to determine the pseudo-Hill coefficient, n′H, using the following equation: logBs/B0−Bs=n^′HlogI−n^′HlogIC50, in which the negative of the Hill slope, n′H, can be readily calculated by a linear regression of plotting logBs/B0−Bs vs. logI , as we published [22, 25].

As for `Cn1ncnc1[C@H]1c2n[nH]c(=O)c3cc(F)cc(c23)N[C@@H]1c1ccc(F)cc1` [3a″, (8S,9R)-5-Fluoro-8-(4-fluorophenyl)-9-(1-methyl-1H-1,2,4-triazol-5-yl)-2,7,8,9-tetrahydro-3H-pyrido[4,3,2-de]phthalazin-3-one], the “intratumoral PAR concentration” value in the data set with intratumoral PAR is given as “significantly attenuated”. Besides, the P-glycoprotein substrate result in the data set with P-glycoprotein (P-gp) is given as “substrate of P-glycoprotein (P-gp)”.
As usually defined, the Ki is a dissociation constant, usually derived from enzyme kinetics or from competition with a known ligand. As to `Cn1ncnc1C1c2n[nH]c(=O)c3cc(F)cc(c23)NC1c1ccc(Br)cc1` (centres unmarked) [Compound 3b, 8-(4-bromophenyl)-5-fluoro-9-(1-methyl-1H-1,2,4-triazol-5-yl)-2,7,8,9-tetrahydro-3H-pyrido[4,3,2-de]phthalazin-3-one], on PARP-1, the inhibition constant Ki is 1.92 ± 0.41 nM and the “pseudoHill coefficient n′H” value was determined as 1.24 ± 0.24.
In the same order, the values of `Cn1ncnc1C1c2n[nH]c(=O)c3cc(F)cc(c23)NC1c1ccc(I)cc1` (centres unmarked) [Compound 3c, 8-(4-iodophenyl)-5-fluoro-9-(1-methyl-1H-1,2,4-triazol-5-yl)-2,7,8,9-tetrahydro-3H-pyrido[4,3,2-de]phthalazin-3-one] are 1.73 ± 0.43 nM and 1.01 ± 0.20.
At PARP-1, `CCN1CCC[C@H]1CNC(=O)c1c(O)c(Cl)cc(Cl)c1OC` [Raclopride, reference compound] displayed a Ki greater than 20000 nM. Besides, the “displacement of [3H]WC-DZ” value at PARP-1 (U251MG cells, 0.1 nM to 1 µM) is “No apparent displacement”.
Turning to `Cn1ncnc1[C@H]1c2n[nH]c(=O)c3cc(F)cc(c23)N[C@@H]1c1ccc([18F])cc1` [[^18F]talazoparib], the tumor uptake in the data set with PC-3 prostate tumors (4 h post-injection, i.v., SCID mice) was 3.78 ± 0.55 %ID/gram; in the data set with PC-3 prostate tumors (8 h post-injection, i.v., SCID mice), 4.52 ± 0.32 %ID/gram. For the same compound, the “uptake in liver, spleen, kidney, and pancreas” value with PC-3 prostate tumors (after 4 h, only slightly reduced at 8 h) is “High uptake”. Moreover, the “uptake in bone marrow” value in the data set on PC-3 prostate tumors (at 4 and 8 h) is on record as “high”. The “time for clearance of radioactivity from the blood” value in the data set with PC-3 prostate tumors (blood, i.v., SCID mice) is given as no more than 4 h. This compound also had a brain uptake in the data set on PC-3 prostate tumors (brain, 4 h post-injection, i.v., SCID mice) of 0.05 ± 0.01 %ID/gram.
